Test systems include CHRF288-11; CMK; CMS; M07e; ML-2; MOLM-13; MV4-11; U937.
Common to all, as to parameters: species or system AML cell lines (8); Primary HTS, single concentration about 10 uM, Cell Titer Glo viability; log10 luminescence, per cent inhibition relative to cycloheximide control
Conditions in all cases: 72 h, relative to cycloheximide control, log10 luminescence, inhibitor

Like-named read-outs stand apart in the source and are kept apart here.

Regarding `CN(C)/N=N/c1[nH]cnc1C(N)=O` [SJ000285718-4, DACARBAZINE], the CHRF288-11 %inh in the test on CHRF288-11 was 9.396%. In addition, the CMK %inh in the test on CMK came out at 31.68%. For the same compound, in the test with CMS, the CMS %inh was -1.6%. The M07e %inh in the test with M07e was -1.918%. Further, the ML-2 %inh in the test on ML-2 is given as -0.5509%. For the same compound, the MOLM-13 %inh in the test on MOLM-13 worked out at 31.43%. The MV4-11 %inh with MV4-11 is recorded as 4.433%. Moreover, the U937 %inh in the test on U937 came out at 1.118%.
With `C[C@]12CC[C@@H]3c4ccc(O)cc4CC[C@H]3[C@@H]1CCC2=O` [SJ000285760-8, ESTRONE], the CHRF288-11 %inh in the test with CHRF288-11 (CHRF288-11 %inh, 10 µM) came to 3.613%. For the same compound, the CMK %inh with CMK (CMK %inh, 10 µM) is listed as -1.298%. Further, the CMS %inh in the test with CMS (CMS %inh, 10 µM) is -1.181%. The M07e %inh in the test with M07e (M07e %inh, 10 µM) was 2.553%. In the test on ML-2 (ML-2 %inh, 10 µM), the ML-2 %inh came out at 0.7014%. Further, in the test with MOLM-13 (MOLM-13 %inh, 10 µM), the MOLM-13 %inh was -0.7843%. The MV4-11 %inh in the test with MV4-11 (MV4-11 %inh, 10 µM) amounted to 1.151%. Besides, the U937 %inh in the test with U937 (U937 %inh, 10 µM) is on record as -0.6937%.
`O=C1NC(=NCc2ccccc2)S/C1=C\c1ccc2ncccc2c1` [SJ000581073-1]: the CHRF288-11 %inh with CHRF288-11 came out at 5.173%. Further, the CMK %inh in the test on CMK was 48.96%. Moreover, the CMS %inh in the test with CMS came to 5.2%. The M07e %inh with M07e is given as 12.28%. The ML-2 %inh with ML-2 is reported as 2.983%. The MOLM-13 %inh with MOLM-13 was found to be 18.77%. Further, the MV4-11 %inh with MV4-11 came to 27.42%. In addition, the U937 %inh with U937 amounted to 3.079%.
Take `CCOC(=O)C1=C[C@@H](OC(CC)CC)[C@H](NC(C)=O)[C@@H](N)C1` [SJ000555712-1, OSELTAMIVIR PHOSPHATE]: the CHRF288-11 %inh in the test on CHRF288-11 was -4.38%. Moreover, the CMK %inh with CMK turned out to be 1.207%. Besides, the CMS %inh with CMS was 1.863%. Further, the M07e %inh in the test on M07e is recorded as -1.677%. In the test with ML-2, the ML-2 %inh came to 3.111%. Besides, the MOLM-13 %inh in the test on MOLM-13 is recorded as -1.922%. In addition, the MV4-11 %inh with MV4-11 is given as -1.699%. Also, the U937 %inh with U937 is recorded as -0.7037%.
Turning to `CO[C@@H]1[C@H](OC(=O)/C=C/C=C/C=C/C=C/C(=O)O)CC[C@]2(CO2)[C@H]1[C@@]1(C)O[C@@H]1CC=C(C)C` [SJ000556696-2, FUMAGILLIN], the CHRF288-11 %inh with CHRF288-11 (CHRF288-11 %inh, 10 µM) stood at 24.31%. Besides, in the test on CMK (CMK %inh, 10 µM), the CMK %inh is reported as -0.114%. Besides, the CMS %inh in the test with CMS (CMS %inh, 10 µM) was found to be 7.757%. The M07e %inh in the test on M07e (M07e %inh, 10 µM) came out at 1.679%. Besides, the ML-2 %inh in the test on ML-2 (ML-2 %inh, 10 µM) worked out at 3.251%. For the same compound, in the test on MOLM-13 (MOLM-13 %inh, 10 µM), the MOLM-13 %inh was found to be 10.06%. In addition, in the test on MV4-11 (MV4-11 %inh, 10 µM), the MV4-11 %inh is 9.134%. Also, the U937 %inh with U937 (U937 %inh, 10 µM) was 20.26%.
On to `CNC(=O)c1sc(-n2cnc3cc(OC)c(OC)cc32)cc1OCc1ccccc1C(F)(F)F` [SJ000573306-1, U22436/130/1], for which the CHRF288-11 %inh in the test on CHRF288-11 came out at 8.101%. The CMK %inh with CMK was 19.06%. In the test on CMS, the CMS %inh is recorded as 0.3871%. The M07e %inh with M07e is on record as -3.893%. Also, the ML-2 %inh with ML-2 is given as 3.023%. For the same compound, in the test with MOLM-13, the MOLM-13 %inh stood at 15.4%. The MV4-11 %inh with MV4-11 is recorded as 7.836%. Besides, in the test with U937, the U937 %inh came out at 5.347%.
Regarding `Nc1ccc(C#Cc2cncnc2Nc2ccc(OCc3cccc(F)c3)c(Cl)c2)cc1` [SJ000573041-1, U17810/18/1], in the test with CHRF288-11, the CHRF288-11 %inh turned out to be 2.448%. Further, the CMK %inh with CMK is 13.47%. For the same compound, in the test on CMS, the CMS %inh stood at 3.795%. Also, in the test with M07e, the M07e %inh is reported as 8.047%. The ML-2 %inh in the test with ML-2 stood at 5.257%. The MOLM-13 %inh in the test on MOLM-13 is recorded as 7.505%. Further, the MV4-11 %inh with MV4-11 came to 4.494%. Further, in the test with U937, the U937 %inh is on record as 3.684%.
Turning to `CCOc1ccccc1CCN=C1NC(=O)/C(=C/c2ccc3ncccc3c2)S1` [SJ000581120-1], in the test on CHRF288-11, the CHRF288-11 %inh was -1.679%. Further, the CMK %inh in the test with CMK is recorded as 13.66%. The CMS %inh with CMS came to 5.975%. Moreover, the M07e %inh in the test with M07e is 13.3%. Moreover, in the test on ML-2, the ML-2 %inh amounted to 18.56%. Moreover, in the test with MOLM-13, the MOLM-13 %inh is on record as 1.703%. Moreover, the MV4-11 %inh in the test on MV4-11 came to 0.5335%. Further, in the test with U937, the U937 %inh amounted to 6.277%.
As to `Cn1cc(C2=C(c3c4n(c5ccccc35)CCC(CN)CC4)C(=O)NC2=O)c2ccccc21` (stereo not shown) [SJ000581022-1], in the test with CHRF288-11, the CHRF288-11 %inh is 0.7803%. In the test on CMK, the CMK %inh is given as 2.783%. The CMS %inh in the test on CMS is 0.653%. Also, in the test with M07e, the M07e %inh was found to be 8.854%. Further, the ML-2 %inh with ML-2 is 3.751%. Also, the MOLM-13 %inh in the test on MOLM-13 stood at 2.979%. In addition, the MV4-11 %inh in the test with MV4-11 is on record as 5.378%. The U937 %inh in the test with U937 was 3.425%.
In the case of `Cc1ccc2c(c1)c(C1=C(c3cn(C)c4ccccc34)C(=O)NC1=O)cn2C` [SJ000581079-1], the CHRF288-11 %inh in the test on CHRF288-11 is 31.79%. In the test on CMK, the CMK %inh is 50.85%. The CMS %inh with CMS was 12.87%. Also, in the test on M07e, the M07e %inh was determined as 21.17%. Besides, the ML-2 %inh with ML-2 was determined as 12.05%. Also, the MOLM-13 %inh in the test on MOLM-13 was determined as 61.76%. Besides, the MV4-11 %inh in the test on MV4-11 was found to be 11.84%. Also, the U937 %inh in the test on U937 is reported as 21.19%.
With `C#C[C@]1(O)CC[C@H]2[C@@H]3CCC4=CCCC[C@@H]4[C@H]3C(=C)C[C@@]21CC` [SJ000565174-1, DESOGESTREL], the CHRF288-11 %inh with CHRF288-11 was found to be 1.152%. Besides, the CMK %inh in the test on CMK is 2.427%. Moreover, the CMS %inh with CMS is 2.249%. Further, the M07e %inh in the test on M07e was determined as 3.523%. In the test on ML-2, the ML-2 %inh amounted to 3.09%. In addition, the MOLM-13 %inh with MOLM-13 came to 0.3348%. Further, the MV4-11 %inh in the test with MV4-11 is given as 4.001%. Also, in the test on U937, the U937 %inh is 2.771%.
As for `Nc1nc(-c2ccc3c(c2)C(=Cc2cc(Br)c(O)c(Br)c2)C(=O)N3)cs1` [SJ000573294-1, U11298/118/1], in the test with CHRF288-11, the CHRF288-11 %inh turned out to be 13.11%. Moreover, in the test with CMK, the CMK %inh was -5.127%. Also, the CMS %inh in the test with CMS worked out at 1.564%. The M07e %inh in the test on M07e was determined as 2.045%. In the test with ML-2, the ML-2 %inh is on record as 0.7137%. In addition, the MOLM-13 %inh with MOLM-13 is given as -2.176%. For the same compound, the MV4-11 %inh in the test on MV4-11 is listed as -2.964%. Further, the U937 %inh with U937 is -1.497%.
With `O=C1NC(=O)/C(=C\c2ccc3nccnc3c2)S1` [SJ000534768-3, PI 3-K-GAMMA-INHIBITOR | 648450-29-7 | AS-605240 | AS605240 | PI 3-KY INHIBITOR], the CHRF288-11 %inh in the test with CHRF288-11 (CHRF288-11 %inh, 10 µM) is given as -5.698%. In addition, the CMK %inh with CMK (CMK %inh, 10 µM) is recorded as -0.8645%. Moreover, the CMS %inh with CMS (CMS %inh, 10 µM) was -2.146%. Further, the M07e %inh with M07e (M07e %inh, 10 µM) was found to be 2.407%. For the same compound, the ML-2 %inh with ML-2 (ML-2 %inh, 10 µM) was -0.2464%. The MOLM-13 %inh in the test on MOLM-13 (MOLM-13 %inh, 10 µM) worked out at 3.402%. Also, the MV4-11 %inh with MV4-11 (MV4-11 %inh, 10 µM) was found to be 0.09671%. The U937 %inh in the test with U937 (U937 %inh, 10 µM) is -0.7574%.
As to `Cc1ccc(C)c(C2=C(c3cn(C)c4ccccc34)C(=O)NC2=O)c1` [SJ000581152-1], the CHRF288-11 %inh in the test with CHRF288-11 is reported as 30.38%. Also, the CMK %inh with CMK is 4.497%. In addition, in the test with CMS, the CMS %inh is -1.704%. Further, the M07e %inh in the test with M07e was -1.997%. In addition, the ML-2 %inh in the test on ML-2 is given as 0.7091%. Also, in the test on MOLM-13, the MOLM-13 %inh is reported as 2.3%. Also, the MV4-11 %inh with MV4-11 is recorded as 2.862%. In addition, the U937 %inh in the test on U937 was found to be 4.715%.
`CNCCCn1cc(C2=C(c3cn(C)c4ccccc34)C(=O)NC2=O)c2ccccc21` [SJ000581176-1]: the CHRF288-11 %inh with CHRF288-11 was found to be 23.82%. In the test on CMK, the CMK %inh worked out at 37.79%. The CMS %inh in the test on CMS stood at 6.195%. For the same compound, the M07e %inh in the test on M07e is 23.08%. For the same compound, the ML-2 %inh in the test on ML-2 stood at 2.284%. For the same compound, the MOLM-13 %inh in the test with MOLM-13 is recorded as 86.21%. Moreover, the MV4-11 %inh in the test with MV4-11 amounted to 44.21%. In addition, the U937 %inh with U937 amounted to 9.304%.
In the case of `COc1cc2c(cc1Nc1nc(Nc3ccsc3C(N)=O)c3cc[nH]c3n1)N(C(=O)CN(C)C)CCC2(C)C` [SJ000573038-1, N3343-83-1], the CHRF288-11 %inh in the test on CHRF288-11 came to 128.8%. Besides, the CMK %inh with CMK turned out to be 81.26%. The CMS %inh in the test with CMS is reported as 16.39%. The M07e %inh in the test with M07e is 57.48%. Moreover, in the test with ML-2, the ML-2 %inh was determined as 44.68%. Besides, the MOLM-13 %inh with MOLM-13 is 92.5%. In addition, the MV4-11 %inh in the test with MV4-11 stood at 43.78%. Besides, the U937 %inh with U937 was determined as 51.73%.
With `O=C1NC(=NCCc2ccccn2)S/C1=C\c1ccc2ncccc2c1` [SJ000581148-1], the CHRF288-11 %inh in the test on CHRF288-11 is given as 5.232%. The CMK %inh in the test on CMK is listed as 25.57%. Besides, the CMS %inh in the test with CMS is 10.48%. For the same compound, the M07e %inh in the test with M07e amounted to 10.8%. For the same compound, the ML-2 %inh with ML-2 is recorded as 2.217%. For the same compound, the MOLM-13 %inh in the test on MOLM-13 was 58.53%. In the test on MV4-11, the MV4-11 %inh was 45.12%. In addition, the U937 %inh in the test with U937 was 2.939%.
